# Laboratory results: article PMC4894417, “Quantitative High-Throughput Profiling of Environmental Chemicals and Drugs that Modulate Farnesoid X Receptor” (Scientific Reports, 2014)
# Entries after “also recorded” stand apart in the source; their conditions may differ. Read-outs that look alike come from different tables or passages of the source.
# Legend:
# androgen receptor (AR) = androgen receptor (AR) (Homo sapiens, UniProt P10275); test: AR-bla reporter gene assay (agonist and antagonist modes)
# vitamin D receptor (VDR) = vitamin D receptor (VDR) (Homo sapiens, UniProt P11473); test: VDR-bla reporter gene assay (agonist and antagonist modes)
# [1] = target: peroxisome proliferator-activated receptor gamma (PPARγ) (Homo sapiens, UniProt P37231); test: PPARγ-bla reporter gene assay (agonist and antagonist modes)
# [2] = system: FXR-UAS-bla HEK293T cells; test: Cell viability assay (CellTiter Glo) in the same well as FXR-bla; conditions: for Cell viability IC50: Table 1, mean ± SD of 3 experiments
# FXR-LBD [3] = target: T1, FXR-LBD (Homo sapiens, UniProt Q96RI1); test: FXR TR-FRET coactivator recruitment assay, agonist mode; type: biochemical; conditions: Table 1; coactivator SRC2-2 recruitment
# T1 construct: The glutathione S-transferase (GST)-tagged FXR-LBD protein; purchased Life Technologies
# T1 sequence (Q96RI1 262-486 limits assumed): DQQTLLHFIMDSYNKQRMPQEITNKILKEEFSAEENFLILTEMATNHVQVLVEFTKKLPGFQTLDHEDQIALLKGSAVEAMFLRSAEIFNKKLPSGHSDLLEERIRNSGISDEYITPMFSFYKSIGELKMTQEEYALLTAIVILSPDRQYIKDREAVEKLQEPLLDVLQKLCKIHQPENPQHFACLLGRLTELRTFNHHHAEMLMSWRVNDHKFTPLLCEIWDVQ
# FXR-LBD [4] = target: T1, FXR-LBD; test: FXR TR-FRET coactivator recruitment assay, antagonist mode (50 μM CDCA); type: biochemical
# human FXR [5] = target: T2, human FXR (Homo sapiens, UniProt Q96RI1); test: FXR-bla reporter gene assay, agonist mode (qHTS); conditions: for FXR-bla, agonist EC50: Table 1, confirmed compounds, mean ± SD of 3 experiments; for FXR agonist activity: FXR-bla assay
# [6] = target: estrogen receptor alpha (ERα) (Homo sapiens, UniProt P03372); test: ERα-bla reporter gene assay (agonist and antagonist modes)
# human FXR [7] = target: T2, human FXR; test: FXR-bla reporter gene assay, antagonist mode (CDCA-induced transactivation); conditions: for FXR-bla, antagonist Efficacy: Table 1, inhibition as percent of positive control (guggulsterone), 50 μM CDCA
# [8] = target: peroxisome proliferator-activated receptor delta (PPARδ) (Homo sapiens, UniProt Q03181); test: PPARδ-bla reporter gene assay (agonist and antagonist modes)
# [9] = Cell viability assay (CellTiter Glo) in the same well as FXR-bla; conditions: human, FXR-UAS-bla HEK293T cells
# [10] = Table S1, primary screening, 50 µM CDCA
# [11] = Table S1, primary screening, CDCA 100%
# [12] = Table 1, in the presence of 50 μM CDCA
# Chain of estrogen receptor alpha (ERα) (P03372 with tags, fused parts or gaps limits assumed): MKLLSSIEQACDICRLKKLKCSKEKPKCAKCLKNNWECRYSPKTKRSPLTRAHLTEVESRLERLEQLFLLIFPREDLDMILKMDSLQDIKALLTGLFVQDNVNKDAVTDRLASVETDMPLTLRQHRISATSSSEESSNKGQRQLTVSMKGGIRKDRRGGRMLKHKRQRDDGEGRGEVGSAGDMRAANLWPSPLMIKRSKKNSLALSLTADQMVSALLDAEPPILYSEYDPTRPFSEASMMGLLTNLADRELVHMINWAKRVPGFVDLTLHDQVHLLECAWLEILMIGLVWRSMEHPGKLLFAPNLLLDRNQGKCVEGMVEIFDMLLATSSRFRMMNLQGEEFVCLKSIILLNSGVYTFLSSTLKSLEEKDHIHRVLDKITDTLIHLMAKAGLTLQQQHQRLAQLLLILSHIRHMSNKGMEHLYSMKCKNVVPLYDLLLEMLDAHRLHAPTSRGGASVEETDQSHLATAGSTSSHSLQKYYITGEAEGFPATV
# Chain of peroxisome proliferator-activated receptor delta (PPARδ) (Q03181 with tags, fused parts or gaps limits assumed): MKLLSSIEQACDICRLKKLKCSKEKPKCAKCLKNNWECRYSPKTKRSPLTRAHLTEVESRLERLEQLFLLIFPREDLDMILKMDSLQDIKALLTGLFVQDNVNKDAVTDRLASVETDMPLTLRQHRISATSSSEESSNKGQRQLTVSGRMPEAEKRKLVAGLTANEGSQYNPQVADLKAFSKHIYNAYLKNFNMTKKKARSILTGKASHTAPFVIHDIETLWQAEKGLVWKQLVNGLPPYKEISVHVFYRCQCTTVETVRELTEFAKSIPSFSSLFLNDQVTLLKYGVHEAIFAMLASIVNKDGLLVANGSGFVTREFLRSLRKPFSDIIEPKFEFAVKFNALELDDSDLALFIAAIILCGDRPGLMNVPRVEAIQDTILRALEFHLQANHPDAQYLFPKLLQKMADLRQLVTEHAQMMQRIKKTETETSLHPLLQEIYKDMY
# T2 sequence (Q96RI1 with tags, fused parts or gaps limits assumed): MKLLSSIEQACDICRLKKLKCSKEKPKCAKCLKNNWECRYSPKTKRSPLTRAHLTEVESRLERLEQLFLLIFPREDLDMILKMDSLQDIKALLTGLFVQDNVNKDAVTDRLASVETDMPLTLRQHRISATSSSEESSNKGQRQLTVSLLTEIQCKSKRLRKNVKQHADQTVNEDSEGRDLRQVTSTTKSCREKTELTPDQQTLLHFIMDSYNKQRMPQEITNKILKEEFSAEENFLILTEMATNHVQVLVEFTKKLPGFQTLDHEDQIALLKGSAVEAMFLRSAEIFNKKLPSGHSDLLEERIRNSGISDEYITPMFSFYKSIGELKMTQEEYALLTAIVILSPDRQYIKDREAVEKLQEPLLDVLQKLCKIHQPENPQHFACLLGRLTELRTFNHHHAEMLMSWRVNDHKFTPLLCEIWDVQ
# Chain of vitamin D receptor (VDR) (P11473 with tags, fused parts or gaps limits assumed): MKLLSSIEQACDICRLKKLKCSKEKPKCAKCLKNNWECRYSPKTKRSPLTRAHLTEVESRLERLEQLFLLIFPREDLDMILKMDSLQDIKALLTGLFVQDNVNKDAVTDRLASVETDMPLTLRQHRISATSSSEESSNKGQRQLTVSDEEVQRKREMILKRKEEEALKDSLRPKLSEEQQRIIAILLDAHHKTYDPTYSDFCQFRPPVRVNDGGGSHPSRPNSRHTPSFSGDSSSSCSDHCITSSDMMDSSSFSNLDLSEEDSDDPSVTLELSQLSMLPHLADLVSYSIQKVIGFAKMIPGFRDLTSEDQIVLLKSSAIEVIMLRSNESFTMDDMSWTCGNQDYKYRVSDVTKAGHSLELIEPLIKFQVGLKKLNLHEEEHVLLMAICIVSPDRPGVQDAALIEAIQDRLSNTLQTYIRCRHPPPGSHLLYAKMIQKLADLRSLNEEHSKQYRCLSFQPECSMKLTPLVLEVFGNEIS
# Chain of androgen receptor (AR) (P10275 with tags, fused parts or gaps limits assumed): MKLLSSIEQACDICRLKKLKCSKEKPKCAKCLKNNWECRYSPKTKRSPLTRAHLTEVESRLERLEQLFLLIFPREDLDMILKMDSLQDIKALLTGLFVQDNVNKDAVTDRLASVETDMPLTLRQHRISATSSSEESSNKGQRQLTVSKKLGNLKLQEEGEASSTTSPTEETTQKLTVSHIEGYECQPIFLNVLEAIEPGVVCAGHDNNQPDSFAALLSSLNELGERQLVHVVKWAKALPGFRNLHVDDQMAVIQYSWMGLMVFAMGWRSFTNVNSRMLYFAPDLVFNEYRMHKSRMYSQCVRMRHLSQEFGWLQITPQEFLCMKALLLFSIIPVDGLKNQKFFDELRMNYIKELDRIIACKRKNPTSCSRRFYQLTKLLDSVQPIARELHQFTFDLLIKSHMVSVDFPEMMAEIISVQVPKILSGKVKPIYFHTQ
# Chain of peroxisome proliferator-activated receptor gamma (PPARγ) (P37231 with tags, fused parts or gaps limits assumed): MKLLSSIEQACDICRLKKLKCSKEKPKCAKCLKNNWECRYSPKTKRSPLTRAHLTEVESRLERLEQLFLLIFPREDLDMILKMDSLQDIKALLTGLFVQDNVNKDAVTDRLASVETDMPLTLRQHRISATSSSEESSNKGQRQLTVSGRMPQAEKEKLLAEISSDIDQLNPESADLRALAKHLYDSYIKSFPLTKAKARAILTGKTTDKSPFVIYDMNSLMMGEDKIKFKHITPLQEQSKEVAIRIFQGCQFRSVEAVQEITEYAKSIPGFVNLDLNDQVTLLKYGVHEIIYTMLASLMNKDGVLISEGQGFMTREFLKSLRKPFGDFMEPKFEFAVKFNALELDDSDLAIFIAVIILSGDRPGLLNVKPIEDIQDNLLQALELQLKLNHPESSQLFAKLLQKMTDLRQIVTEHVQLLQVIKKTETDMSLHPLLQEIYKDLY
compound,measurement,setting,value
COC(=O)Nc1nc2ccccc2[nH]1 [Carbendazole],AR activity,androgen receptor (AR),inhibiting β-lactamase expression
same,VDR activity,vitamin D receptor (VDR),inhibiting β-lactamase expression
same,PPARγ activity,[1],inhibiting β-lactamase expression
same,Cytotoxicity IC50,"[2]; Table S1, primary screening",Inactive
COc1cc2c(c(OC)c1OC)-c1ccc(OC)c(=O)cc1[C@@H](NC(C)=O)CC2 [Colchicine],"FXR TR-FRET, agonist EC50",FXR-LBD [3],Inactive
same,IC50,FXR-LBD [4],0.03 µM
same,"FXR-bla, agonist EC50",human FXR [5],Inactive
same,AR activity,androgen receptor (AR),inhibiting β-lactamase expression
same,ERα activity,[6],antagonized
same,VDR activity,vitamin D receptor (VDR),inhibiting β-lactamase expression
same,PPARγ activity,[1],inhibiting β-lactamase expression
same,Cell viability IC50,[2],Inactive
same,FXR antagonist Efficacy,human FXR [7],55 ± 11%
same,FXR antagonist activity,"human FXR [7]; FXR-bla assay, CDCA-induced",inhibiting β-lactamase expression
same,IC50,"human FXR [7]; FXR-bla, antagonist IC50",0.03 µM
same,IC50,"human FXR [7]; IC50, FXR-bla antagonist mode, Figure 4, primary screen",0.011 µM
COc1cccc2c1C(=O)c1c(O)c3c(c(O)c1C2=O)C[C@@](O)(C(C)=O)C[C@@H]3O[C@H]1C[C@H](N)[C@H](O)[C@H](C)O1 [Daunorubicin],VDR activity,vitamin D receptor (VDR),antagonist response
same,PPARδ activity,[8],antagonist response
same,PPARγ activity,[1],antagonist response
C[C@H]1O[C@@H](O[C@H]2[C@@H](O)C[C@H](O[C@H]3[C@@H](O)C[C@H](O[C@H]4CC[C@@]5(C)[C@H](CC[C@@H]6[C@@H]5C[C@@H](O)[C@]5(C)[C@@H](C7=CC(=O)OC7)CC[C@]65O)C4)O[C@@H]3C)O[C@@H]2C)C[C@H](O)[C@@H]1O [Digoxin],FXR agonist mode EC50,human FXR [5],Inactive
same,IC50 at 16 h,[9],0.02 ± 0.01 µM
same,Cytotoxicity Efficacy,"[2]; Table S1, primary screening",35 ± 7%
same,FXR antagonist activity,human FXR [7],inconclusive antagonists
same,FXR antagonist mode Efficacy,human FXR [7],92 ± 10%
same,IC50,"human FXR [7]; FXR antagonist mode IC50, Table S1, primary screening, 50 µM CDCA",0.08 ± 0.02 µM
COc1cccc2c1C(=O)c1c(O)c3c(c(O)c1C2=O)C[C@@](O)(C(=O)CO)C[C@@H]3O[C@H]1C[C@H](N)[C@H](O)[C@H](C)O1 [Doxorubicin],ERα activity,[6],mixed agonist/antagonist response
same,VDR activity,vitamin D receptor (VDR),antagonist response
same,PPARδ activity,[8],antagonist response
same,PPARγ activity,[1],antagonist response
same,Cell viability IC50,[2],Inactive
CCOC(=O)C1=C(C)NC(C)=C(C(=O)OC)C1c1cccc(Cl)c1Cl (centres unmarked) [Felodipine],PPARδ activity,[8],activated
COC1=CC(=O)C[C@@H](C)[C@]12Oc1c(Cl)c(OC)cc(OC)c1C2=O [Griseofulvin],FXR agonist mode EC50,"human FXR [5]; Table S1, primary screening",Inactive
same,ERα activity,[6],antagonized
same,VDR activity,vitamin D receptor (VDR),inhibiting β-lactamase expression
same,PPARγ activity,[1],inhibiting β-lactamase expression
same,Cytotoxicity IC50,"[2]; Table S1, primary screening",Inactive
same,IC50,human FXR [7],42.3 ± 17.3 µM
same,FXR antagonist activity,"human FXR [7]; FXR-bla assay, CDCA-induced",antagonistic effects; also recorded: inhibiting β-lactamase expression
same,FXR antagonist mode Efficacy,human FXR [7]; [10],42 ± 7%
"C[C@H](CCC(=O)O)[C@H]1CC[C@H]2[C@@H]3CC[C@@H]4C[C@H](O)CC[C@]4(C)[C@H]3CC[C@]12C [LCA, lithocholic acid]",FXR agonist activity,human FXR [5],selectively induced transactivation of FXR
same,FXR agonist mode Efficacy,human FXR [5]; [11],20 ± 7%
same,IC50 at 16 h,[9],43.8 ± 4.18 µM
same,Cytotoxicity Efficacy,"[2]; Table S1, primary screening",65 ± 22%
same,FXR antagonist mode Efficacy,human FXR [7]; [10],75 ± 40%
COC(=O)C1=C(C)NC(COC(N)=O)=C(C(=O)OC(C)C)C1c1cccc(Cl)c1Cl (centres unmarked) [Lemildipine],AR activity,androgen receptor (AR),activated
same,ERα activity,[6],activated
same,PPARδ activity,[8],activated
COC(=O)C1=C(C)NC(C)=C(C(=O)OCCN2CCN(C(c3ccccc3)c3ccccc3)CC2)C1c1cccc([N+](=O)[O-])c1 (centres unmarked) [Manidipine],EC50,human FXR [5],6.92 ± 4 µM
same,FXR agonist activity,human FXR [5],weak FXR agonist activity
same,FXR agonist mode Efficacy,human FXR [5]; [11],13 ± 1%
same,IC50 at 16 h,[9],18.2 ± 15.1 µM
same,Cytotoxicity Efficacy,"[2]; Table S1, primary screening",49 ± 17%
same,IC50,human FXR [7],19.2 ± 10.4 µM
same,FXR antagonist mode Efficacy,human FXR [7]; [10],57 ± 35%
COC(=O)Nc1nc2ccc(C(=O)c3ccccc3)cc2[nH]1 [Mebendazole],"FXR TR-FRET, agonist EC50",FXR-LBD [3],Inactive
same,"FXR TR-FRET, antagonist IC50",FXR-LBD [4]; [12],Inactive
same,"FXR-bla, agonist EC50",human FXR [5],Inactive
same,AR activity,androgen receptor (AR),inhibiting β-lactamase expression
same,VDR activity,vitamin D receptor (VDR),inhibiting β-lactamase expression
same,PPARγ activity,[1],inhibiting β-lactamase expression
same,Cell viability IC50,[2],Inactive
same,IC50,human FXR [7],2.19 ± 1.51 µM
same,FXR antagonist activity,"human FXR [7]; FXR-bla assay, CDCA-induced",inhibiting β-lactamase expression
same,"FXR-bla, antagonist Efficacy",human FXR [7],70 ± 9%
same,FXR antagonist Efficacy,"human FXR [7]; Table S3, 50 µM CDCA",66 ± 12%
COC(=O)C1=C(C)NC(C)=C(C(=O)OCCN(C)Cc2ccccc2)C1c1cccc([N+](=O)[O-])c1 (centres unmarked) [Nicardipine],EC50,human FXR [5],3.64 ± 0.84 µM
same,FXR agonist activity,human FXR [5],weak FXR agonist activity
same,FXR agonist mode Efficacy,human FXR [5]; [11],33 ± 7%
same,FXR agonist Efficacy,human FXR [5]; Table S3,33 ± 7%
same,EC50 at 16 h,[9],31.9 ± 15.8 µM
same,IC50 at 16 h,[9],31.9 ± 15.8 µM
same,Cytotoxicity Efficacy,"[2]; Table S1, primary screening",125 ± 27%
same,Cytotoxicity Efficacy,[2]; Table S3,125 ± 27%
same,IC50,human FXR [7],16.7 ± 5.67 µM
same,FXR antagonist mode Efficacy,human FXR [7]; [10],116 ± 10%
same,FXR antagonist Efficacy,"human FXR [7]; Table S3, 50 µM CDCA",116 ± 10%
COc1cccc2c1C(=O)c1c(O)c3c(c(O)c1C2=O)C[C@@](O)(C(=O)CO)C[C@@H]3O[C@H]1C[C@H](N)[C@H](O[C@@H]2CCCCO2)[C@H](C)O1 [Pirarubicin],EC50,human FXR [5],16.9 ± 11 µM
same,FXR agonist mode Efficacy,human FXR [5],20 ± 9%
same,AR activity,androgen receptor (AR),mixed agonist/antagonist response
same,ERα activity,[6],mixed agonist/antagonist response
same,VDR activity,vitamin D receptor (VDR),antagonist response
same,PPARδ activity,[8],antagonist response
same,PPARγ activity,[1],antagonist response
same,Cytotoxicity IC50,"[2]; Table S1, primary screening",Inactive
same,FXR antagonist mode Efficacy,human FXR [7],60 ± 23%
same,IC50,human FXR [7]; FXR antagonist mode IC50,21.3 ± 15.6 µM
COc1cc([C@@H]2c3cc4c(cc3[C@H](O)[C@H]3COC(=O)[C@H]23)OCO4)cc(OC)c1OC [Podofilox],AR activity,androgen receptor (AR),inhibiting β-lactamase expression
same,VDR activity,vitamin D receptor (VDR),inhibiting β-lactamase expression
same,PPARγ activity,[1],inhibiting β-lactamase expression
CCc1c(C(=O)NN2CCCCC2)nn(-c2ccc(Cl)cc2Cl)c1-c1ccc(Br)cc1 [Surinabant],"FXR TR-FRET, agonist EC50",FXR-LBD [3],Inactive
same,"FXR TR-FRET, antagonist Efficacy",FXR-LBD [4]; [12],73 ± 1%
same,"FXR-bla, agonist EC50",human FXR [5],Inactive
same,EC50 at 16 h,[9],34.1 ± 13.5 µM
same,IC50,"[2]; Homo sapiens, HEK-293T, read-out: Cell viability IC50",17.1 ± 1.12 µM
same,Cytotoxicity Efficacy,[2]; Table S3,66 ± 17%
same,IC50,human FXR [7],1.84 ± 0.77 µM
same,"FXR-bla, antagonist Efficacy",human FXR [7],86 ± 25%
same,FXR antagonist Efficacy,"human FXR [7]; Table S3, 50 µM CDCA",96 ± 16%
